Results as given in publication PMC10649178, “Exploring the Interactions of Soybean 7S Globulin with Gallic Acid, Chlorogenic Acid and (−)-Epigallocatechin Gallate” (Foods, 2023).
Marks after values point to notes of the source that are not given here. Each block holds one molecule with its values, some of them ahead of it.

Tests used:
[1] = target: T1, soybean 7S globulin (7S; β-conglycinin) (Glycine max, UniProt P0DO16+P11827+P25974); experiment: isothermal titration calorimetry, one-site model; assay type: binding; conditions: 10 mM phosphate pH 7.0, 25 °C, 5 mM ligand
T1 construct: gene CG-1; mature trimers of α, α’ and β, 150-180 kDa
T1 sequence (P11827 63-621): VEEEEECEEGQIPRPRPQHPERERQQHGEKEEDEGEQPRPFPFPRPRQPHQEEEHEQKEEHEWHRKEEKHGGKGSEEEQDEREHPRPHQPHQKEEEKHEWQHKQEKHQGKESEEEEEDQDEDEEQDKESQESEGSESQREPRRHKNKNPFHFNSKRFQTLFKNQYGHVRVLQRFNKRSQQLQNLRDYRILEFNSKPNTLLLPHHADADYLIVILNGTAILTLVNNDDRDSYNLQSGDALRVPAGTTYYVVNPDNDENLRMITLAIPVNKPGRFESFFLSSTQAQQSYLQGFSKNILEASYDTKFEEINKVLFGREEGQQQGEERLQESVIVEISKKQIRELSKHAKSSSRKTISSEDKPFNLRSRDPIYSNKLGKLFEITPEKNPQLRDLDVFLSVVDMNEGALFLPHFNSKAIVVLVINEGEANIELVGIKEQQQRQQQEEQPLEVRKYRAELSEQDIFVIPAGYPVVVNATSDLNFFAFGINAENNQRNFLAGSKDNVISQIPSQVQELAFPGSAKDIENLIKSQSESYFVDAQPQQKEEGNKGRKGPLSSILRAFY
T1 sequence (P0DO16 63-605): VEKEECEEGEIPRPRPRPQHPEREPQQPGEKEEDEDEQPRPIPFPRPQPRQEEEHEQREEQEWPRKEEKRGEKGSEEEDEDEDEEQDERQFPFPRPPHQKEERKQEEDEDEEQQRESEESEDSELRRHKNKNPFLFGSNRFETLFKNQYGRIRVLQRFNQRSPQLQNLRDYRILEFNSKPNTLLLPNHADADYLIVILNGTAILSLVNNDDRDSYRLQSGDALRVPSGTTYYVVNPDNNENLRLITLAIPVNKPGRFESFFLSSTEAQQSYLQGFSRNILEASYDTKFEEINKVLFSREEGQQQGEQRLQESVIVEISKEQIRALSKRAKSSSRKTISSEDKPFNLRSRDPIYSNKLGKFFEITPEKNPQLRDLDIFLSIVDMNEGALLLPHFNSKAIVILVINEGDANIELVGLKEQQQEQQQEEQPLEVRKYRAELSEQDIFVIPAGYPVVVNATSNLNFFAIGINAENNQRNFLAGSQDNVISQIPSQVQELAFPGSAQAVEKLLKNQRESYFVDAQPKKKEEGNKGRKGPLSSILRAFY
T1 sequence (P25974 24-439): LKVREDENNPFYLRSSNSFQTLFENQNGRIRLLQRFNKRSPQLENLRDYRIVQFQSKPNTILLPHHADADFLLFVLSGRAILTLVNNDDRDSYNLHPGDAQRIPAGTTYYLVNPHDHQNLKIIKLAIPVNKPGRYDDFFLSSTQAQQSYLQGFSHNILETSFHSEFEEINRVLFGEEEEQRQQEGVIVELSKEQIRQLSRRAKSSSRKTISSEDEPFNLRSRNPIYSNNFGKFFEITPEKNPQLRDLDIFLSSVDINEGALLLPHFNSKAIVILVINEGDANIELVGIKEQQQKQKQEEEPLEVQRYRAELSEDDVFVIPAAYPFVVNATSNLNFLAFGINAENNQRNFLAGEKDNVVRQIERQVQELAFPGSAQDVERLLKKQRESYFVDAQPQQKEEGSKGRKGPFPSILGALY
Description: isothermal titration calorimetry, one-site model on soybean 7S globulin (7S; β-conglycinin)

[2] = target: T1, soybean 7S globulin (7S; β-conglycinin); experiment: intrinsic fluorescence quenching, double-logarithmic fit; assay type: binding; conditions: 10 mM phosphate pH 7.0, 298 K, 10 μM 7S, 0-12 μM ligand
Description: intrinsic fluorescence quenching, double-logarithmic fit on soybean 7S globulin (7S; β-conglycinin)

Kd ([1]; 10 μM 7S, N = 7.23 sites): 444 µM
Ka (10^4 L/mol) ([2]; n = 1.42): 7.44 ± 0.32 (10^4)
Structure (SMILES): O=C(/C=C/c1ccc(O)c(O)c1)O[C@@H]1C[C@](O)(C(=O)O)C[C@@H](O)[C@H]1O [CA, chlorogenic acid]

Structure (SMILES): O=C(O[C@@H]1Cc2c(O)cc(O)cc2O[C@@H]1c1cc(O)c(O)c(O)c1)c1cc(O)c(O)c(O)c1 [EGCG, (−)-epigallocatechin gallate]
Kd ([1]; 5 μM 7S, N = 1.68 sites): 485 µM
Ka (10^4 L/mol) ([2]; n = 1.25): 6.23 ± 0.30 (10^4)

Structure (SMILES): O=C(O)c1cc(O)c(O)c(O)c1 [GA, gallic acid]
Kd ([1]; 10 μM 7S, N = 10.0 sites): 720 µM
Ka (10^4 L/mol) ([2]; n = 1.12): 5.10 ± 0.30 (10^4)
